In brackets after ≈: the same amount, converted by molar mass.
What was measured:
[1] = test system: Mycobacterium tuberculosis; assay: In vitro minimal inhibitory concentration against Mycobacterium tuberculosis [H37Rv stain]; type: functional
[2] = test system: Mycobacterium tuberculosis; assay: In vitro inhibitory concentration against Mycobacterium tuberculosis [H37Rv stain]; type: functional, organism-based
[3] = test system: Mycobacterium tuberculosis; assay: Log CFU in lungs of mice infected with H37Rv stain of Mycobacterium tuberculosis after administration at 25 mg/Kg; type: functional, Lung

C/C(=N/NC(=O)c1ccncc1)c1cccc(CN2CCN(c3ccccn3)CC2)c1O
MIC [1]: 0.9 µM (≈ 0.387 µg/mL) | IC50 [2]: > 14.5 µM

C/C(=N/NC(=O)c1ccncc1)c1cccc(CN(Cc2ccccc2)Cc2ccccc2)c1O
MIC [1]: 3.36 µM (≈ 1.56 µg/mL) | IC50 [2]: > 13.5 µM

C/C(=N/NC(=O)c1ccncc1)c1cccc(CN2CCOCC2)c1O
MIC [1]: 2.2 µM (≈ 0.78 µg/mL) | IC50 [2]: > 17.6 µM

NNC(=O)c1ccncc1 [ISONIAZID]
Log CFU [3]: 6.38 | MIC [1]: 2.04 µM (≈ 0.28 µg/mL) | IC50 [2]: > 45.6 µM

C/C(=N/NC(=O)c1ccncc1)c1cccc(CN2CCN(c3cc4c(cc3F)c(=O)c(C(=O)O)cn4C3CC3)CC2)c1O
MIC [1]: 1.3 µM (≈ 0.778 µg/mL) | IC50 [2]: > 10.4 µM

C/C(=N/NC(=O)c1ccncc1)c1cccc(CN2CCNCC2)c1O
Log CFU [3]: 6.08 | MIC [1]: 0.56 µM (≈ 0.198 µg/mL) | IC50 [2]: > 17.7 µM

CCCCN(CCCC)Cc1cccc(/C(C)=N\NC(=O)c2ccncc2)c1O
MIC [1]: 3.93 µM (≈ 1.56 µg/mL) | IC50 [2]: > 15.8 µM

C/C(=N/NC(=O)c1ccncc1)c1cccc(CN2CCN(Cc3ccccc3)CC2)c1O
MIC [1]: 0.88 µM (≈ 0.39 µg/mL) | IC50 [2]: > 14.1 µM

CCN(CC)Cc1cccc(/C(C)=N\NC(=O)c2ccncc2)c1O
MIC [1]: 2.29 µM (≈ 0.78 µg/mL) | IC50 [2]: > 18.4 µM

CCn1cc(C(=O)O)c(=O)c2cc(F)c(N3CCN(Cc4cccc(/C(C)=N\NC(=O)c5ccncc5)c4O)C(C)C3)c(F)c21 (centres undefined)
MIC [1]: 1.26 µM (≈ 0.779 µg/mL) | IC50 [2]: > 10.1 µM

C/C(=N/NC(=O)c1ccncc1)c1cccc(CN2CCN(c3ccc(F)cc3)CC2)c1O
MIC [1]: 0.87 µM (≈ 0.389 µg/mL) | IC50 [2]: > 14 µM

C/C(=N/NC(=O)c1ccncc1)c1cccc(CN2CCCCC2)c1O
MIC [1]: 4.43 µM (≈ 1.56 µg/mL) | IC50 [2]: > 17.7 µM

C/C(=N/NC(=O)c1ccncc1)c1cccc(CN2CCN(C)CC2)c1O
MIC [1]: 8.61 µM (≈ 3.16 µg/mL) | IC50 [2]: > 17.2 µM

C/C(=N/NC(=O)c1ccncc1)c1cccc(CN2CCCC2)c1O
MIC [1]: 4.61 µM (≈ 1.56 µg/mL) | IC50 [2]: > 18.5 µM

C/C(=N/NC(=O)c1ccncc1)c1cccc(CN(C)C)c1O
MIC [1]: 2.49 µM (≈ 0.778 µg/mL) | IC50 [2]: > 20 µM

C/C(=N/NC(=O)c1ccncc1)c1cccc(CN(c2ccccc2)c2ccccc2)c1O
MIC [1]: 3.57 µM (≈ 1.56 µg/mL) | IC50 [2]: > 14.3 µM

Source: ChEMBL document CHEMBL1142849, “Synthesis and in vitro and in vivo antimycobacterial activity of isonicotinoyl hydrazones” (Bioorg Med Chem Lett, 2005)
